Results as given in patent US8293274B2, “Intestinal absorptive anti-tumor agent” (Kabushiki Kaisha Sangi, priority 2005, dated 2012).
Structures can show the parent of a compound that is named as a salt. Each block holds one compound with its values, some of them ahead of it.

Test: Intestinal absorption test of various antitumor agents (plasma concentration by gas/liquid chromatography)
Procedure: Rats were fasted for 16 hours and then forced oral administration to the stomach was performed using an oral gastric tube for rats.
Blood was collected from the tail vein prior to administration and 15 and 30 minutes, 1, 2, 3, 4, 6, 8 and 24 hours after administration. The collected blood was centrifuged at 4° C. for 15 minutes at 3,000 rpm to obtain plasma, and then the plasma concentrations of the various antitumor agents were measured.
These concentrations were measured using gas chromatography and liquid chromatography.

[1] = male, Sprague-Dawley, rat, in vivo, po, 50 mg/kg
[2] = male, Sprague-Dawley, rat, in vivo, po, 0.2 mg/kg
[3] = bleomycin hydrochloride in plasma, rats fasted 16 hours, oral, 2.0 mg/kg

Compound: O=P1(NCCCl)OCCCN1CCCl (stereo not drawn) [Comparative Test Example 4-2, ifosfamide]
AUC(0-t) [1]: 1240 ng·h/mL
Cmax [1]: 250 ng/mL
Tmax [1]: 45 min

AUC(0-t) [2]: 1110 ng·h/mL
Cmax [2]: 90 ng/mL
Tmax [2]: 49.8 min
Compound: CC[C@]1(O)C[C@H]2CN(CCc3c([nH]c4ccccc34)[C@@](C(=O)OC)(c3cc4c(cc3OC)N(C=O)[C@H]3[C@@](O)(C(=O)OC)[C@H](OC(C)=O)[C@]5(CC)C=CCN6CC[C@]43[C@@H]65)C2)C1 [Comparative Test Example 4-4, vincristine sulfate]

Compound: bleomycin hydrochloride [Comparative Test Example 4-3]
AUC0-24 h [3]: 520 ng·h/mL
Cmax [3]: 120 ng/mL
Tmax [3]: 85.2 min
